The results in this text go back to patent US10758522B2, “Small molecule analogs of the nemo binding peptide” (THE SCRIPPS RESEARCH INSTITUTE, priority 2015, dated 2020).

The test system of one data set is mdx mice. In words: Chronic treatment of mdx mice (Duchenne muscular dystrophy model). The data set is classed as in vivo, mouse. The note with it: for tibialis anterior muscle pathology (H&E): SR compounds 30 mg/kg, 8K-NBD 10 mg/kg. The text has this:
Mdx mice develop normally at birth, and then undergo a massive myonecrosis starting at three weeks. Treatment of mdx mice with IKK/NF-kB inhibitors effectively reduces inflammation, block necrosis and increase muscle regeneration. Mdx mice were chronically treated with vehicle, SR12343, SR12460 or 8K-NBD starting from day 21, 3 times/week for 4 weeks. […] To determine if SR12343 and SR12460 improve muscle pathology, tibialis anterior (TA) muscle was stained with hematoxylin and eosin (H&E) to assess inflammatory infiltration, necrosis, central nucleation and fibrosis. […] Fiber size in centrally nucleated and non-centrally nucleated myofibers was also smaller in mice treated with SR12343 and 8K-NBD, indicating active reconstruction of myofiber during the regenerative phase.
To determine muscle strength post-treatment, grip strength test on forelimbs was performed 2 weeks and 4 weeks post-treatment.
HEK293 cells were grown in Dulbecco's Modification of Eagles Medium (with 4.5 g/L glucose and L-glutamine), supplemented with 10% fetal bovine serum, penicillin and streptomycin. Raw264.7 cells were cultured in RPMI-1640 media containing 10% heat-inactivated fetal bovine serum, penicillin and streptomycin. C57BL/10ScSn-Dmd^mdx/J and female C57BL/6 mice were purchased from the Jackson Laboratory. Mice were housed in the animal facilities of Scripps Fla. under constant temperature and humidity. Animal protocols used in this study were approved by Scripps Fla. Institutional Animal Care and Use Committees. Three week-old sex-matched mdx mice were dosed with SR12343 (30 mg/kg), […] (30 mg/kg), 8K-NBD peptide (10 mg/kg) or vehicle by intraperitoneal (i.p.) injection 3 times per week for 4 weeks. Mice were sacrificed at 7 weeks of age by carbon dioxide inhalation and tibialis anterior was collected for histological analysis.
Seven week-old treated or untreated mdx mice were measured for forelimb grip strength using a digital grip strength meter paired with a metal grid (Bioseb). Mice were allowed to grip the metal grid tightly and readings were obtained by gently pulling the tail backward until release. Five sequential measurements were performed and the average force was calculated.
Tissues fixed in 10% neutral buffered formalin (NBF) overnight were imbedded in paraffin. Tissue was sectioned at […] using a microtome. H&E staining was conducted following a standard protocol (REF).

For the next data set, the system named is NF-κB target genes. In words: qRT-PCR of NF-κB target genes in LPS-stimulated Raw 264.7 cells. The data set is classed as cell-based, mouse. The note with it: Raw 264.7, 1 ug/ml LPS 2 hr; mimetics 50 μM, IKKi VII 2 μM, 8K-NBD 400 μM. The protocol: Effect of the NBD mimetics on expression of NF-kB regulated genes in the Raw mouse macrophage cell line. Treatment of the Raw cells with the indicated drugs prior to addition of LPS reduced NF-kB-mediated gene expression as measured by RT-PCR.
To determine whether the inhibitory effect of the mimetics is TNF-α-dependent, LPS-mediated NF-κB activation via TLR4 was examined to determine a broader inhibitory effect of the novel NBD mimetics. NF-κB was stimulated in Raw 264.7 by 1 ug/ml of LPS for 2 hr and genes transcriptionally regulated by NF-κB were determined by qRT-PCR analysis. Both an IKK active site inhibitor IKKi VII (2 μM) and the 8K-NBD peptide (400 μM) were included as positive controls and the expression of COX2, IL-6, IL-1β, TNF-α, IκBα and iNOS were assessed.
Raw 264.7 cells were treated with a 50 μM solution of the SR compound for 30 minutes, and then the mRNA was harvested 2 hours after addition of 1 μg/mL LPS.
Snap frozen tissues were preserved in RNAlater RNA stabilization solution (ThermoFisher) before processed. Total RNA was extracted from cells or tissues using TRIZOL reagent (Life Technologies) and 1500 ng of messenger RNA (mRNA) was subjected to synthesize complementary DNA (cDNA) using SuperScript VILO cDNA synthesis kit. qRT-PCR was performed in a StepOnePlus Real-Time PCR system using Platinum SYBR Green qPCR SuperMix-UDG (ThermoFisher). Target gene expression was calculated using the comparative CT method (ΔΔCT) and normalized to an internal control gene Actb (β-actin). Primers used are as follows: Ptgs2 (COX-2) forward: […]; Ptgs2 (COX-2) reverse: […]; Nfkbia (IκBα) forward: […]; Nfkbia (IκBα) reverse: […]; Il1b (IL-1β) forward: […]; Il1b (IL-1β) reverse: […]; Nos2 (iNOS) forward: […]; Nos2 (iNOS) reverse: […]; Tnf (TNF) forward: […]; Tnf (TNF) reverse: […]; Il6 (IL-6) forward: […]; Il6 (IL-6) reverse: […]. Actb (β-actin) forward: […]; Actb (β-actin) reverse: […];

For another data set, the system named is IL-6. In words: IL-6 ELISA in LPS-stimulated Raw 264.7 cells. The data set is classed as cell-based, mouse. The note with it: Raw 264.7, 1 ug/ml LPS, supernatant at 24 hr. The protocol: To confirm the qRT-PCR result, LPS-mediated IL-6 production was analyzed in Raw 264.7 cells by ELISA. […] Moreover, SR11481 appears to work more efficiently at a lower concentration around 25 μM. Taken together, four lead compounds were identified through seven rounds of optimization and modification.
Enzyme-Linked Immunosorbent Assay (ELISA). Raw264.7 cells were grown in a 96-well plate and pretreated with vehicle, IKKi VII (2 uM) and small molecules (at indicated concentration) for 1 hr, followed by the stimulation with 1 ug/ml of LPS. Supernatant was collected 24 hr later for ELISA analysis. IL-6 concentration was measured using a mouse IL-6 ELISA kit (BD) according to the manufacturer's instructions.
For orientation: An ELISA detects its analyte on a solid surface through an enzyme-linked reagent.

A short description of data set [1]: Pharmacokinetics study after ip injection. The note with it: mice, 10 mg/kg ip, 2 hr. The data set is classed as in vivo. The protocol:
To determine the stability of the NBD mimetics in vivo, the pharmacokinetics of the compounds was determined in serum following ip injection.
The pharmacokinetic profiles of the NBD mimetics were determined in male C57BL/6J mice (n=3). The drugs were formulated in 10:10:80 of DMSO:Tween 80:water and were dosed by intraperitoneal injection at a final dose of 10 mg/kg. Blood, brain, muscle, spleen, and liver were collected 2 hr post-treatment and were analyzed by mass spectrometry by following the protocol described in ref. 215 (42).

“Also recorded” adds a separate entry of the source.

Consider `Nc1ncccc1C(=O)OCC(=O)Nc1ccc(Cl)cc1F` [NBDA-1, 2-((4-chloro-2-fluorophenyl)amino)-2-oxoethyl 2-aminonicotinate], for which the “therapeutic benefit of chronic treatment of mdx mice” value in the data set with mdx mice (chronic treatment with the ZINC compounds) is recorded as “showed no therapeutic benefit”.

In the case of `O=C(CNCCc1cc(F)cc(F)c1)Nc1ccc(Cl)cn1` [SR12460, N-(5-chloropyridin-2-yl)-2-((3,5-difluorophenethyl)amino)acetamide], the “transcription of NF-κB target genes (COX2, IL-6, IL-1β, TNF-α, IκBα, iNOS)” value with NF-κB target genes is “significantly downregulate the transcription of all NF-κB target genes tested”. Further, the “LPS-mediated mIL-6 production (ELISA)” value with IL-6 is listed as “decreasing by half at 25 μM”. Also, in data set [1], the “stability in serum after ip injection” value is “significant stability 2 hr after injection”. Besides, in the data set with mdx mice (ip 3 times/week for 4 weeks), the “expression of eMyHC and Pax 7 in TA muscle (qRT-PCR)” value is given as “increased eMyHC expression, but to a lower extent compared to SR12343”; the “tibialis anterior muscle pathology (H&E)” value is reported as “partly improved muscle pathology”.

Take `O=C(CNc1ccc(Cl)cn1)NCCc1cccc(Br)c1` [SR12343, N-(3-bromophenethyl)-2-((5-chloropyridin-2-yl)amino)acetamide]: in the data set on NF-κB target genes, the “transcription of NF-κB target genes (COX2, IL-6, IL-1β, TNF-α, IκBα, iNOS)” value is “significant inhibition on COX2, IL-6 and iNOS expression”. The “LPS-mediated mIL-6 production (ELISA)” value with IL-6 was “suppressed mIL-6 production in a dose-dependent manner”. The “stability in serum after ip injection” value in data set [1] (10 mg/kg) is on record as “moderate stability; also recorded: less stable compared to SR12460”. For the same compound, the forelimb grip strength result in the data set on mdx mice (2 weeks post-treatment) is “significantly improved forelimb strength after 2 weeks of treatment”. Also, in the data set on mdx mice (ip 3 times/week for 4 weeks), the “expression of eMyHC and Pax 7 in TA muscle (qRT-PCR)” value is recorded as “increasing expression of eMyHC as well as Pax 7”; the “fiber size in centrally nucleated and non-centrally nucleated myofibers” value was “smaller”; the “tibialis anterior muscle pathology (H&E)” value is given as “most significant pathological improvement”.
